From ChEMBL document CHEMBL3112456, “Dual inhibition of HCV and HIV by ring-expanded nucleosides containing the 5:7-fused imidazo[4,5-e][1,3]diazepine ring system. In vitro results and implications” (Bioorg Med Chem Lett, 2014)
Converted amounts (≈) assume the structure as drawn. The source made the active and inactive calls. The calls are words filed in the database; no cut-off is given here.

Experiments:
Hepacivirus hominis [1] = test: Inhibition of helicase activity of HCV NTPase/helicase using radio-labelled double-stranded RNA as substrate up to 300 ug/ml after 30 mins
Hepacivirus hominis [2] = test: Inhibition of helicase activity of HCV NTPase/helicase using radio-labelled double-stranded DNA as substrate up to 300 ug/ml after 30 mins
Hepatitis C virus [3] = test: Antiviral activity against HCV infected in human Huh7 cells assessed as reduction in RNA level by luciferase reporter gene assay relative to control; format: functional
[4] = test system: Human immunodeficiency virus; test: Antiviral activity against HIV; format: functional, organism-based
Hepacivirus hominis [5] = test: Inhibition of NTPase activity of HCV NTPase/helicase using 105 microM gamma-[32P]ATP as substrate up to 0.7 mM after 30 mins
[6] = Selectivity index, ratio of beta-actin level in human HuH7 cells to viral RNA level in HCV infected in human Huh7 cells; parameters: species or system Huh-7
Hepacivirus hominis [7] = test: Inhibition of NTPase activity of HCV NTPase/helicase using 1 x 10^-5 M gamma-[32P]ATP as substrate up to 0.7 mM after 30 mins
Hepatitis C virus [8] = test: Antiviral activity against HCV genotype 1b infected in human BM4-5 cells reduction in RNA level after 5 days by luciferase reporter gene assay relative to control; format: functional, organism-based, Hepacivirus hominis; conditions: BM4-5, 120 h
[9] = Inhibition of helicase activity of HCV NTPase/helicase using radio-labelled double-stranded DNA as substrate after 30 mins; parameters: species or system Hepacivirus hominis
Huh-7 = test: Cytotoxicity against human HuH7 cells assessed as beta-actin levels relative to control; format: cell-based
Hepacivirus hominis [10] = test: Inhibition of helicase activity of HCV NTPase/helicase using radio-labelled double-stranded RNA as substrate after 30 mins
[11] = Cytotoxicity against human BM4-5 cells after 5 days by Neutral Red dye assay; format: cell-based; conditions: bm4-5, 120 h

## CCCCCCCCCCCCCCNc1nc(=O)c2ncn([C@@H]3O[C@H](CO)[C@@H](O)[C@H]3O)c2c(=O)[nH]1
Hepacivirus hominis [1]
  inhibition: inactive
Hepacivirus hominis [2]
  inhibition: inactive

## CCCCCCCCCCNc1nc(=O)c2ncn([C@@H]3C[C@H](O)[C@@H](CO)O3)c2c(=O)[nH]1
Hepacivirus hominis [1]
  inhibition: inactive
Hepacivirus hominis [2]
  inhibition: inactive

## CCCCCCCCNc1nc(=O)c2ncn([C@@H]3C[C@H](O)[C@@H](CO)O3)c2c(=O)[nH]1
Hepacivirus hominis [1]
  inhibition: inactive
Hepacivirus hominis [2]
  inhibition: inactive

## CCCCCCCCCCCCCCCCCCN
Hepatitis C virus [3]; Hepacivirus hominis, Huh-7
  Activity: inactive
[4]
  Activity: inactive

## CCCCCCCCCCCCCCCCCCNc1nc(=O)c2ncn([C@@H]3C[C@H](O)[C@@H](CO)O3)c2c(=O)[nH]1
Hepacivirus hominis [5]
  inhibition: inactive
Hepatitis C virus [3]
  Activity: 10%
[6]
  Selectivity Index: 9.9
Hepacivirus hominis [7]
  inhibition: inactive
Hepatitis C virus [8]
  IC50: 18 µM
[9]
  IC50: 5.5 µg/mL (≈ 10 µM)
Huh-7
  Activity: 99%
Hepacivirus hominis [10]
  inhibition: Active
[11]
  Activity: Non-toxic

## CCCCCCCCNc1nc(=O)c2ncn([C@@H]3O[C@H](CO)[C@@H](O)[C@H]3O)c2c(=O)[nH]1
Hepacivirus hominis [1]
  inhibition: inactive
Hepacivirus hominis [2]
  inhibition: inactive

## NC(=O)c1ncn([C@@H]2O[C@H](CO)[C@@H](O)[C@H]2O)n1 [RIBAVIRIN]
Hepatitis C virus [3]
  Activity: 89%
[6]
  Selectivity Index: 0.14
Huh-7
  Activity: 12%

## CCCCCCCCCCCCCCCCNc1nc(=O)c2ncn([C@@H]3O[C@H](CO)[C@@H](O)[C@H]3O)c2c(=O)[nH]1
Hepacivirus hominis [1]
  inhibition: inactive
Hepacivirus hominis [2]
  inhibition: inactive

## CCCCCCCCCCCCNc1nc(=O)c2ncn([C@@H]3O[C@H](CO)[C@@H](O)[C@H]3O)c2c(=O)[nH]1
Hepacivirus hominis [1]
  inhibition: inactive
Hepacivirus hominis [2]
  inhibition: inactive

## CCCCCCCCCCNc1nc(=O)c2ncn([C@@H]3O[C@H](CO)[C@@H](O)[C@H]3O)c2c(=O)[nH]1
Hepacivirus hominis [1]
  inhibition: inactive
Hepacivirus hominis [2]
  inhibition: inactive

## CCCCCCCCCCCCCCNc1nc(=O)c2ncn([C@@H]3C[C@H](O)[C@@H](CO)O3)c2c(=O)[nH]1
Hepacivirus hominis [1]
  inhibition: inactive
Hepacivirus hominis [2]
  inhibition: inactive

## CCCCCCCCCCCCCCCCNc1nc(=O)c2ncn([C@@H]3C[C@H](O)[C@@H](CO)O3)c2c(=O)[nH]1
Hepacivirus hominis [1]
  inhibition: inactive
Hepacivirus hominis [2]
  inhibition: inactive

## CCCCCCCCCCCCCCCCCCNc1nc(=O)c2ncn([C@@H]3O[C@H](CO)[C@@H](O)[C@H]3O)c2c(=O)[nH]1
Hepacivirus hominis [5]
  inhibition: inactive
Hepatitis C virus [3]
  Activity: 9%
[6]
  Selectivity Index: 10.89
Hepacivirus hominis [7]
  inhibition: inactive
Hepatitis C virus [8]
  IC50: 16 µM
[9]
  IC50: 6 µg/mL (≈ 10.6 µM)
Huh-7
  Activity: 98%
Hepacivirus hominis [10]
  inhibition: Active
[11]
  Activity: Non-toxic

## CCCCCCCCCCCCCCN
Hepatitis C virus [3]; Hepacivirus hominis, Huh-7
  Activity: inactive
[4]
  Activity: inactive
